Assay results as given in ChEMBL document CHEMBL1201862, “PubChem BioAssay data set” (2004).
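Five concentrations, 48 hours, 96-well plates. GI50: concentration for 50% inhibition of growth.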 Calls of active or inactive are those of the source. Cut-off read from the data, not from the text of the source: active = GI50 up to about 1.1 µM and inactive = higher.

How the values were obtained:
Test in all cases: growth of human tumour cells (NCI), 48 h
NCI-H226 = tested on: NCI-H226
HCC 2998 = tested on: HCC 2998
SK-MEL-2 = tested on: SK-MEL-2
OVCAR-8 = tested on: OVCAR-8
SN12C = tested on: SN12C
HCT-15 = tested on: HCT-15
HCT-116 = tested on: HCT-116
LOX IMVI = tested on: LOX IMVI
UACC-257 = tested on: UACC-257
NCI/ADR-RES = tested on: NCI/ADR-RES
UO-31 = tested on: UO-31
OVCAR-3 = tested on: OVCAR-3
EKVX = tested on: EKVX
NCI-H23 = tested on: NCI-H23
SF-539 = tested on: SF-539
U-251 = tested on: U-251
NCI-H460 = tested on: NCI-H460
CAKI-1 = tested on: CAKI-1
HOP-92 = tested on: HOP-92
SK-MEL-5 = tested on: SK-MEL-5

SMILES: CCN1CCC(O)(/C=C/c2ccccc2C)C(C(=O)/C=C/c2ccccc2C)C1 (centres undefined)
- GI50 (NCI-H226): 3.79 µM (inactive)
- GI50 (HCC 2998): 1.31 µM (inactive)
- GI50 (SK-MEL-2): 2.33 µM (inactive)
- GI50 (OVCAR-8): 2.71 µM (inactive)
- GI50 (SN12C): 2.18 µM (inactive)
- GI50 (HCT-15): 1.56 µM
- GI50 (HCT-116): 1.78 µM (inactive)
- GI50 (LOX IMVI): 1.68 µM (inactive)
- GI50 (UACC-257): 2.9 µM (inactive)
- GI50 (NCI/ADR-RES): 3.65 µM (inactive)
- GI50 (UO-31): 1.63 µM (inactive)
- GI50 (OVCAR-3): 2.25 µM (inactive)
- GI50 (EKVX): 4.06 µM (inactive)
- GI50 (NCI-H23): 1.8 µM (inactive)
- GI50 (SF-539): 2.31 µM (inactive)
- GI50 (U-251): 2.34 µM (inactive)
- GI50 (NCI-H460): 1.53 µM (inactive)
- GI50 (CAKI-1): 1.82 µM (inactive)
- GI50 (HOP-92): 1.34 µM (inactive)
- GI50 (SK-MEL-5): 1.56 µM (inactive)

SMILES: CCN(CC)CCN(C(=O)c1ccc(F)cc1)c1ccccc1N
- GI50 (NCI-H226): 3.72 µM (inactive)
- GI50 (HCC 2998): > 10 µM (inactive)
- GI50 (SK-MEL-2): > 10 µM (inactive)
- GI50 (OVCAR-8): > 10 µM (inactive)
- GI50 (SN12C): > 10 µM (inactive)
- GI50 (HCT-15): > 10 µM
- GI50 (HCT-116): > 10 µM (inactive)
- GI50 (LOX IMVI): > 10 µM (inactive)
- GI50 (NCI/ADR-RES): > 10 µM (inactive)
- GI50 (UO-31): > 10 µM (inactive)
- GI50 (OVCAR-3): > 10 µM (inactive)
- GI50 (EKVX): > 10 µM (inactive)
- GI50 (NCI-H23): > 10 µM (inactive)
- GI50 (SF-539): > 10 µM (inactive)
- GI50 (U-251): > 10 µM (inactive)
- GI50 (NCI-H460): > 10 µM (inactive)
- GI50 (CAKI-1): > 10 µM (inactive)
- GI50 (SK-MEL-5): > 10 µM (inactive)

SMILES: Nc1ccc(C2(c3ccc(N)cc3)C3CC4CC(C3)CC2C4)cc1
- GI50 (NCI-H226): 19.9 µM (inactive)
- GI50 (HCC 2998): 20.8 µM (inactive)
- GI50 (SK-MEL-2): 18.5 µM (inactive)
- GI50 (OVCAR-8): 7.73 µM (inactive)
- GI50 (SN12C): 18.5 µM (inactive)
- GI50 (HCT-15): 14.6 µM
- GI50 (HCT-116): 21.9 µM (inactive)
- GI50 (LOX IMVI): 16.2 µM (inactive)
- GI50 (UACC-257): 19.2 µM (inactive)
- GI50 (NCI/ADR-RES): 0.0792 µM (active)
- GI50 (UO-31): 18.2 µM (inactive)
- GI50 (OVCAR-3): 10.9 µM (inactive)
- GI50 (EKVX): 16.4 µM (inactive)
- GI50 (NCI-H23): 12.4 µM (inactive)
- GI50 (U-251): 18.3 µM (inactive)
- GI50 (CAKI-1): 15 µM (inactive)
- GI50 (HOP-92): 12.4 µM (inactive)

SMILES: CCN(CC)Cc1ccc2cccnc2c1O
- GI50 (NCI-H226): 6.08 µM (inactive)
- GI50 (HCC 2998): 11.1 µM (inactive)
- GI50 (SK-MEL-2): 20.1 µM (inactive)
- GI50 (OVCAR-8): 2.03 µM (inactive)
- GI50 (SN12C): 4.12 µM (inactive)
- GI50 (HCT-15): 0.365 µM
- GI50 (HCT-116): 3.59 µM (inactive)
- GI50 (LOX IMVI): 3.84 µM (inactive)
- GI50 (UACC-257): 4.91 µM (inactive)
- GI50 (NCI/ADR-RES): 0.358 µM (active)
- GI50 (UO-31): 1.88 µM (inactive)
- GI50 (OVCAR-3): 2.88 µM (inactive)
- GI50 (EKVX): 2.24 µM (inactive)
- GI50 (NCI-H23): 6.67 µM (inactive)
- GI50 (SF-539): 6.58 µM (inactive)
- GI50 (U-251): 4.47 µM (inactive)
- GI50 (NCI-H460): 3.82 µM (inactive)
- GI50 (CAKI-1): 2.47 µM (inactive)
- GI50 (HOP-92): 11.6 µM (inactive)
- GI50 (SK-MEL-5): 3.54 µM (inactive)

SMILES: O=C(NC1C2CC3CC(C2)CC1C3)c1cc(/C=C/c2ccccc2)nc(S)n1 (centres undefined)
- GI50 (HCC 2998): > 100 µM (inactive)
- GI50 (SK-MEL-2): > 100 µM (inactive)
- GI50 (OVCAR-8): > 100 µM (inactive)
- GI50 (HCT-116): > 100 µM (inactive)
- GI50 (LOX IMVI): > 100 µM (inactive)
- GI50 (UACC-257): > 100 µM (inactive)
- GI50 (UO-31): > 100 µM (inactive)
- GI50 (OVCAR-3): > 100 µM (inactive)
- GI50 (EKVX): > 100 µM (inactive)
- GI50 (NCI-H23): > 100 µM (inactive)
- GI50 (SF-539): > 100 µM (inactive)
- GI50 (U-251): > 100 µM (inactive)
- GI50 (NCI-H460): > 100 µM (inactive)
- GI50 (CAKI-1): > 100 µM (inactive)
- GI50 (SK-MEL-5): > 100 µM (inactive)

SMILES: CCCCC1=C(Br)C(=C(Br)Br)OC1=O
- GI50 (NCI-H226): 4 µM (inactive)
- GI50 (HCC 2998): 6.31 µM (inactive)
- GI50 (SK-MEL-2): 2.79 µM (inactive)
- GI50 (OVCAR-8): 3.17 µM (inactive)
- GI50 (SN12C): 2.75 µM (inactive)
- GI50 (HCT-15): 2.2 µM
- GI50 (HCT-116): 3.02 µM (inactive)
- GI50 (LOX IMVI): 1.87 µM (inactive)
- GI50 (UACC-257): 2.48 µM (inactive)
- GI50 (NCI/ADR-RES): 4.14 µM (inactive)
- GI50 (UO-31): 11.9 µM (inactive)
- GI50 (OVCAR-3): 2.55 µM (inactive)
- GI50 (EKVX): 2.49 µM (inactive)
- GI50 (NCI-H23): 4.37 µM (inactive)
- GI50 (SF-539): 3.26 µM (inactive)
- GI50 (U-251): 5.47 µM (inactive)
- GI50 (NCI-H460): 4.56 µM (inactive)
- GI50 (CAKI-1): 2.15 µM (inactive)
- GI50 (HOP-92): 11 µM (inactive)
- GI50 (SK-MEL-5): 3.71 µM (inactive)

SMILES: c1ccc2c(c1)SC1Sc3ccccc3[S+]21 (centres undefined)
- GI50 (NCI-H226): 19.9 µM (inactive)
- GI50 (SK-MEL-2): 34.8 µM (inactive)
- GI50 (OVCAR-8): 21.5 µM (inactive)
- GI50 (SN12C): 5.96 µM (inactive)
- GI50 (HCT-15): > 49.9 µM
- GI50 (HCT-116): 22.7 µM (inactive)
- GI50 (LOX IMVI): 18.5 µM (inactive)
- GI50 (UACC-257): 17.3 µM (inactive)
- GI50 (NCI/ADR-RES): 19.9 µM (inactive)
- GI50 (UO-31): 20.8 µM (inactive)
- GI50 (OVCAR-3): 19.5 µM (inactive)
- GI50 (EKVX): 22 µM (inactive)
- GI50 (NCI-H23): 18.2 µM (inactive)
- GI50 (SF-539): 23.2 µM (inactive)
- GI50 (U-251): 20.6 µM (inactive)
- GI50 (NCI-H460): 29.5 µM (inactive)
- GI50 (CAKI-1): 17.8 µM (inactive)
- GI50 (HOP-92): 10.4 µM (inactive)
- GI50 (SK-MEL-5): 7.28 µM (inactive)
